Experiment: Dissociation constant was reported
Assay type: physicochemical

CN(C)CCN1c2ccccc2Sc2ccc(Cl)cc21 [CHOLRPHENETHAZINE]
pKa: 9.1

From ChEMBL document CHEMBL1121747, “Side-chain effects on phenothiazine cation radical reactions” (J Med Chem, 1981)
